Assay results reported in publication PMC4818757, “Small molecule inhibitors of the Dishevelled‐CXXC5 interaction are new drug candidates for bone anabolic osteoporosis therapy” (EMBO Molecular Medicine, 2016).

Legend:
[1] = biological target: CYP C29 (so in the source); probably CYP2C9) (Homo sapiens, UniProt P11712); test: Cytochrome P450 inhibition assay, C29; conditions: probe fluorogenic P450 substrates
Excerpt: Appendix Table S4. Cytochrome P450 (CYP) inhibition assay with 10 µ M KY-

[2] = biological target: Human Ether-à-go-go Related Gene (hERG) potassium channel (Homo sapiens, UniProt Q12809); test: hERG binding assay (fluorescence polarization)
hERG potassium channel = hERG potassium channel (Homo sapiens, UniProt Q12809); test: hERG binding assay (fluorescence polarization); conditions: human; 10 µM compound; fluorescence polarization
[3] = system: ovariectomized (OVX) mice; test: OVX-induced osteoporosis mouse model; type: in vivo
Protocol: Figure 6 Effects of KY‐02327 on OVX‐induced osteoporosis model mice • A–H Vehicle or 20 mg of KY‐02327 per kg of animal body weight (mpk) was orally administered or 0.06 mpk of the N‐terminal fragment of PTH (amino acids 1‐34) was subcutaneously injected into the Sham‐operated (Sham) or ovariectomized (OVX) mice on 5 sequential days per week for 4 weeks (n = 4). After calcein injection, the prepared femoral sections of the OVX mice were examined under fluorescence microscope to visualize integrated calcein (A, green, arrows). Nuclei were counterstained with DAPI (A, blue). Scale bars, 100 μm. Osteoblast numbers (B) and calcein double‐labeled surfaces (C) were measured in the femoral sections. The mouse femurs were analyzed using micro‐CT, and BMD (D) and BV/TV (E) were calculated from the micro‐CT data. The three‐dimensional images of femoral trabecular bone were reconstructed (F), and trabecular number (G) and trabecular separation (H) were calculated. Data Information: The data are the mean ± s.d. (error bars). Significance was assessed using Kruskal–Wallis test.
This animal study was approved by the Institutional Review Board of Severance Hospital, Yonsei University College of Medicine. The mice were housed in filter‐topped shoebox cages with a computerized environmental control system (MJ LTD, Seoul, Korea). The care and treatment of experimental animals were performed in accordance with institutional guidelines. The room temperature was maintained at 26.5°C with a relative humidity of approximately 40–70%. The mice were given a standard maintenance diet from Dae Han Bio Link (Daejeon, Korea). For OVX mouse experiments, the surgeries were performed with 8‐week‐old female BL6 mice under anesthesia with avertin (2,2,2‐tribromoethanol; Worthington Biochemical, Freehold, NJ) as described previously (Zahoor et al, 2014). After removing the hair, dorsal incisions were made into the dermal layers above both sides of the ovaries using dissection scissors. The connection between the fallopian tube and the uterine horn was cut, and the ovary was removed. The incision was then sutured with 3 single catgut stitches. Sham mice were used as controls. After 4 weeks, the OVX group was divided into three groups for oral administration of vehicle (saline containing 10% Tween‐60) or 20 mg of KY‐02327 per kg of animal body weight (mpk) of KY‐02327, or for subcutaneous injection of 0.06 mpk of N‐terminal fragment of PTH (amino acids 1–34), which were administered for 5 sequential days per week for 4 weeks. The animals were sacrificed, and the organs were harvested for analysis. For the calcein double‐labeling experiment (Pall et al, 1987), calcein (10 mpk in 2% sodium hydrocarbonate, pH 7.4) was injected twice, on the last day of the 2nd and 3rd week. All the mice were randomly assigned to each groups, and the investigators were blinded to the group allocation during the treatments and experiments.
The mouse femurs were scanned using a micro‐CT system (Skyscan 1072; Skyscan, Aartselaar, Belgium). The scanned image data were reconstructed to create 3D images and analyzed using the CT‐Analyzing Program (Skyscan). For femoral trabecular bone analysis, the femurs were scanned with a voxel size of 10 μm, beginning at the end of the growth plate and extending proximally along the diaphysis, and 80 continuous slices (beginning at 0.1 mm from the most proximal aspect of the growth plate in which both condyles were no longer visible) were selected for analysis.
The femurs of OVX mice and the calvariae of 4‐day‐old mice were fixed in 4% paraformaldehyde in PBS. The bones were then decalcified in 10 mM EDTA and embedded in paraffin. Five‐micrometer tissue sections were deparaffinized in 100% xylene followed by re‐hydration with sequential 100% to 50% ethanol washes. The sections were stained with hematoxylin and eosin (H&E), and light micrographs were captured using a SMZ645 Nikon microscope (Nikon, Tokyo, Japan). […]

[4] = system: mouse embryonic fibroblast (MEF) cells; test: qRT-PCR of pathway-specific target genes in MEF cells (off-target); type: cell-based; conditions: 12 hours
Protocol: To evaluate off‐target effects of KY‐02327, we monitored the transcriptional regulation of target genes of major cell signaling pathways in KY‐02327‐treated mouse embryonic fibroblast (MEF) cells (Appendix Table S2 and Appendix Fig S5). […] However, the target genes of other pathways were unaffected by the treatment of KY‐02327 (Appendix Fig S5B‐J). […]
on mouse embryonic fibroblast cells for 12 hours. The mRNA level of pathway-specific target genes (Appendix Table S2) was measured by quantitative real-time […]
Data Information: The data are the mean ± s.d. (error bars), and significance was assessed using unpaired Student’s t-test. [n =3]

CYP3A4 = CYP3A4 (Homo sapiens, UniProt P08684); test: in vitro; conditions: probe fluorogenic P450 substrates
primary calvaria cells [5] = test: β-catenin / Runx2 immunofluorescence in primary calvaria cells; type: cell-based, mouse
primary calvaria cells [6] = test: MTT cell viability of primary calvaria cells; type: cell-based, mouse; conditions: 2 μM
Protocol: Appendix Figure S2. The effects of Dvl-CXXC5 binding small molecule inhibitors on primary calvaria cells.
A Primary calvaria cells were treated with 2 µ M of each compound for the indicated times. The cells were subjected to an MTT assay (OD590 reading) to measure cell viability. The data are the mean ± s.d. (error […]
B Primary calvaria cells were treated with 2 µ M of each compound for 4 days. ALP activity levels were visualized by ALP staining. [n =2]
(1 picture or pasted object on this page, not shown here)

[7] = KY‐02327 20 mpk oral, PTH 0.06 mpk subcutaneous, 4 weeks
[8] = KY‐02327 20 mpk oral, PTH 0.06 mpk subcutaneous, 5 days per week for 4 weeks

Chain of CYP3A4 (P08684 whole entry): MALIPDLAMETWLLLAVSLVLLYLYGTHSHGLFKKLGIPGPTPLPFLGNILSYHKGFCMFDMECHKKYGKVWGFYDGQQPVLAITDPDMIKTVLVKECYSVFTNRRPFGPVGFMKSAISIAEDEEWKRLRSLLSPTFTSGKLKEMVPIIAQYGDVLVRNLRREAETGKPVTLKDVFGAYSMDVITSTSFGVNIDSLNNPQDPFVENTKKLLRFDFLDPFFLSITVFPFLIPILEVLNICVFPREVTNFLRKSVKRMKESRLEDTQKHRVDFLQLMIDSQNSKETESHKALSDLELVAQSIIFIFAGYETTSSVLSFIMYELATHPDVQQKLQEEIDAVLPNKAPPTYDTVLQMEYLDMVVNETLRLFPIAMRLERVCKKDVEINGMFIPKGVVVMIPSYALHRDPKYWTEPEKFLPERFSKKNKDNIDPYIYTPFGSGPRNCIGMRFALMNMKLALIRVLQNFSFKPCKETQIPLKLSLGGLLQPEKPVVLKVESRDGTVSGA
Chain of Human Ether-à-go-go Related Gene (hERG) potassium channel (Q12809 whole entry): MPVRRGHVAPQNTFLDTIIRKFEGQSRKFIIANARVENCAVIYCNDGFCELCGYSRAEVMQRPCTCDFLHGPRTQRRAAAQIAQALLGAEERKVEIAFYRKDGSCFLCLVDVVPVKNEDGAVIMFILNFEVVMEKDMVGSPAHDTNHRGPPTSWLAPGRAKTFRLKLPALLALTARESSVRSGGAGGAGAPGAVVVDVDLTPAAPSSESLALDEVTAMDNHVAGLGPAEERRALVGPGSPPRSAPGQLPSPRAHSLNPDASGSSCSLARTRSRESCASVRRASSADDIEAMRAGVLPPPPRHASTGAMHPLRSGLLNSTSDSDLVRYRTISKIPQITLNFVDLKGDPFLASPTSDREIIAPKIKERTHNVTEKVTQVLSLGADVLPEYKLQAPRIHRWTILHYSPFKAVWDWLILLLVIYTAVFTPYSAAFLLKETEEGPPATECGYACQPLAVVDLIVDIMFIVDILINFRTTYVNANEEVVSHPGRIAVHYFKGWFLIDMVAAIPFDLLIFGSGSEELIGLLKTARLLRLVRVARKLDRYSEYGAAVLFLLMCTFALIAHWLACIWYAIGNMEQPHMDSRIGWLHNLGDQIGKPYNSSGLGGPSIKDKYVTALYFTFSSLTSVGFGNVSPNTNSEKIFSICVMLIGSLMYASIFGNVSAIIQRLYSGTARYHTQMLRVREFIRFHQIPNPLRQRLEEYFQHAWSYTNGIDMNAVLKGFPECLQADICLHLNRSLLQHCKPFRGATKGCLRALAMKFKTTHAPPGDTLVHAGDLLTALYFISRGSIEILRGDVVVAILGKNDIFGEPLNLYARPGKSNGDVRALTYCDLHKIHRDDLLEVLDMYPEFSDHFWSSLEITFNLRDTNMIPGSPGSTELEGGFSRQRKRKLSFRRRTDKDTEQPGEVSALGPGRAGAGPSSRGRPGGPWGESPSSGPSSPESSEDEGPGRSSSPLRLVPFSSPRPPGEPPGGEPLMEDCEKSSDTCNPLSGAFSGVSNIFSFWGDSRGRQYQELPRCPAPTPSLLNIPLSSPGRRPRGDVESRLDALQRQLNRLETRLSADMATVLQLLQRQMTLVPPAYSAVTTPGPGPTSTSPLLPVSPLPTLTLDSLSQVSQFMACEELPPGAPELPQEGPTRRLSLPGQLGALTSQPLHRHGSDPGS
Chain of hERG potassium channel (Q12809 whole entry): as above
Chain of CYP C29 (so in the source); probably CYP2C9) (P11712 whole entry): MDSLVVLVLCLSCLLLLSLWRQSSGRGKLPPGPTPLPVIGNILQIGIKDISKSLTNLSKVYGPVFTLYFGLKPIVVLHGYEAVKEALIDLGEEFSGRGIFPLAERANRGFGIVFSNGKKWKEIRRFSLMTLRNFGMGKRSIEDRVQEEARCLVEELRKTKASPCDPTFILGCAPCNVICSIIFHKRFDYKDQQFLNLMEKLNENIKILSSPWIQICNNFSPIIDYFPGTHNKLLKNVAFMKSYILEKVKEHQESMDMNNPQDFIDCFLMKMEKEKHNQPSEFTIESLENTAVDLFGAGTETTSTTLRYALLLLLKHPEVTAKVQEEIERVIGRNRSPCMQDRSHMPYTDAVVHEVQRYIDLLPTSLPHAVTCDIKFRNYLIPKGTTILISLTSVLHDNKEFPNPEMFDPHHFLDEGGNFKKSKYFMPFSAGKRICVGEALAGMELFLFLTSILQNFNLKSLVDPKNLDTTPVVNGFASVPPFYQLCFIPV

## CCOC(=O)c1cc2cc(O)ccc2n1CC(=O)NCCN1CCCCC1 [KY‐02327]
[1]
  inhibition at 10 µM: 0%
[2]
  cardiotoxicity (hERG potassium channel inhibition test): did not show any significant cardiotoxicity
hERG potassium channel
  inhibition at 10 µM: 10.9 ± 2.07%
[3]; 4 weeks treatment, H&E
  histology of livers, lungs, spleens: No histological abnormalities
[3]; 4‐week treatment
  weight of treated mice: did not change significantly
[3]; [7]
  destroyed trabecular bones (3D micro-CT images): rescued
  mineral contents of the bone (BMD), femur, micro‐CT: significantly increased
  trabecular bone number: increase
  trabecular separation: decrease
[3]; KY‐02327 20 mpk oral, PTH 0.06 mpk subcutaneous, 4 weeks, vs vehicle
  volume of bone (BV/TV): increased
[3]; [8]
  calcein double‐labeled surface: increased
  new bone formation (calcein-labeled) in femur: recovered
  number of osteoblasts: increased
[3]; OVX mice, 20 mpk oral
  calcein double-labelled surface, fold increase: approximately 2 fold
  number of osteoblasts, fold increase: approximately 2 fold
[4]
  mRNA levels of Wnt/β‐catenin target genes: significantly increased
  target genes of other pathways (off-target): unaffected
CYP3A4
  inhibition at 10 µM: 0%

## CCOC(=O)Cn1c(C(=O)OCC)cc2cc(OS(=O)(=O)c3ccc(C)cc3)ccc21 [KY‐02061]
Primary calvaria cells [5]; 2 μM, 2 days
  nuclear accumulation of β‐catenin: strong accumulation
Primary calvaria cells [5]; 5 μM, 14 days
  levels of Runx2 and β‐catenin: increased levels
Primary calvaria cells [6]
  cytotoxic effect (cell number and viability): without any cytotoxic effect
